The source of these data is EP0452101B1, “Spiro bridged and unbridged heterocyclic compounds” (ISRAEL INSTITUTE FOR BIOLOGICAL RESEARCH, priority 1990, dated 1991).

In test [1] the test system is AF64A-treated rats. Kind of test: Passive avoidance (PA) in AF64A-treated rats. Format: in vivo. The note with it: for Retention latency after 72 hours: i.p. From the text: This animal model mimics to a certain extent the cholinergic hypofunction in SDAT (Fisher and Hanin, Ann. Rev. Pharmacol. Toxicol. 26: 161-181, 1986). The method described in Fisher et al (J. Pharmacol. Exptl. Therap., 1991, in the press) and in Fisher et al (Neurosci. Lett. 102: 325-331, 1989) was used here.
No significant differences were found among the different groups of animals tested in the initial latency test; the initial latency ranged from 20 and 31 seconds. In all the experiments using AF150, the compound as free base was dissolved in 10 mM phosphate buffer having pH 7.35.

The subject of test [2] is AF64A-treated rats. Description: Morris water maze (MWM) in AF64A-treated rats. The note with it: i.p. It counts as in vivo. The protocol:
This animal model, which mimics the cholinergic hypofunction and cognitive impairments in SDAT was used as described in Fisher et al (J. Pharmacol. Exptl. Therap, 1991, in the press).
Rats were injected with AF64A (3 nmole/2 µl./side, icv) or saline (2 µl., icv), in presence of phosphate buffer or AF151.

For `CC1=NCC2(CCN(C)CC2)O1` [AF150, 2-Methyl-spiro(1,3-oxazoline-5,4')-1'-methylpiperidine], the “Retention latency after 72 hours” value in test [1] (AF150 0.1 mg./kg., rats treated with AF64A (3 nmole/2µl./side, icv)) is 449.5 ± 52.1 s; in test [1] (AF150 0.1 mg./kg., rats treated with saline) it was 511.8 ± 45.7 s; in test [1] (AF150 0.2 mg./kg., rats treated with AF64A), 481.1 ± 54.3 s; in test [1] (AF150 0.2 mg./kg., rats treated with saline), 479.1 ± 57.2 s; in test [1] (AF150 1.0 mg./kg., rats treated with AF64A), 600.0 ± 0 s; in test [1] (AF150 1.0 mg./kg., rats treated with saline), 571.6 ± 28.4 s. Besides, the retention latency result in test [1] (administered orally at 0.2 and 1.0 mg./kg., free base, AF64A-treated rats (not shown)) is on record as “improved significantly”.
With `CC1=NC2(CCN(C)CC2)CO1` [AF151, 1-methylpiperidine-4-spiro-4'-(2'-methyl-1',3'-oxazoline)], the Path length in test [2] (icv AF64A, AF151 0.07 mg./kg., Block 1) is on record as 729.0± 98.2 cm; in test [2] (icv AF64A, AF151 0.07 mg./kg., Block 2), 918.1±124.3 cm; in test [2] (icv AF64A, AF151 0.07 mg./kg., Block 3) it was 743.1±151.1 cm; in test [2] (icv AF64A, AF151 0.07 mg./kg., Block 4) it was 574.9±101.1 cm; in test [2] (icv AF64A, AF151 0.07 mg./kg., Reversal), 602.9± 97.9 cm; in test [2] (icv AF64A, AF151 0.3 mg./kg., Block 1), 862.3±151.0 cm. In addition, the Path length is on record as 843.5±197.5 cm in test [2] (icv AF64A, AF151 0.3 mg./kg., Block 2); 539.9±146.2 cm in test [2] (icv AF64A, AF151 0.3 mg./kg., Block 3); 297.9± 60.4 cm in test [2] (icv AF64A, AF151 0.3 mg./kg., Block 4); 390.5± 77.0 cm in test [2] (icv AF64A, AF151 0.3 mg./kg., Reversal); 656.6±107.6 cm in test [2] (icv AF64A, AF151 1.0 mg./kg., Block 1); 802.7±111.1 cm in test [2] (icv AF64A, AF151 1.0 mg./kg., Block 2). Further, the Path length turned out to be 795.0±131.3 cm in test [2] (icv AF64A, AF151 1.0 mg./kg., Block 3); 434.4± 33.0 cm in test [2] (icv AF64A, AF151 1.0 mg./kg., Block 4); 606.0± 60.0 cm in test [2] (icv AF64A, AF151 1.0 mg./kg., Reversal); 490.6± 74.0 cm in test [2] (icv Sal., AF151 0.07 mg./kg., Block 1); 562.9± 92.7 cm in test [2] (icv Sal., AF151 0.07 mg./kg., Block 2); 429.2± 76.5 cm in test [2] (icv Sal., AF151 0.07 mg./kg., Block 3). Besides, the Path length in test [2] (icv Sal., AF151 0.07 mg./kg., Block 4) came to 278.0± 44.0 cm; in test [2] (icv Sal., AF151 0.07 mg./kg., Reversal) it was 453.9± 76.0 cm; in test [2] (icv Sal., AF151 0.3 mg./kg., Block 1), 517.8± 45.3 cm; in test [2] (icv Sal., AF151 0.3 mg./kg., Block 2), 365.1± 58.4 cm; in test [2] (icv Sal., AF151 0.3 mg./kg., Block 3), 424.6± 92.3 cm; in test [2] (icv Sal., AF151 0.3 mg./kg., Block 4) it was 346.7± 64.4 cm. Besides, the Path length in test [2] (icv Sal., AF151 0.3 mg./kg., Reversal) is reported as 306.8± 43.3 cm; in test [2] (icv Sal., AF151 1.0 mg./kg., Block 1) it was 607.4± 90.6 cm; in test [2] (icv Sal., AF151 1.0 mg./kg., Block 2) it was 440.2± 90.1 cm; in test [2] (icv Sal., AF151 1.0 mg./kg., Block 3), 408.1± 97.1 cm; in test [2] (icv Sal., AF151 1.0 mg./kg., Block 4), 233.8± 30.6 cm; in test [2] (icv Sal., AF151 1.0 mg./kg., Reversal), 450.0± 93.5 cm.
